Laboratory results reported in the NIST ThermoML archive (doi:10.1016/j.jct.2016.07.008).
Numbers after ± are expanded uncertainties.

Details: Liquid

CCCCO [butan-1-ol]
viscosity [mPa·s]
Details | 293.15 K | 298.15 K | 313.15 K | 323.15 K | 333.15 K | 348.15 K | 353.15 K
100 kPa, Concentric cylinders viscometry | 2.959 ± 0.033 | – | 1.794 ± 0.02 | – | 1.154 ± 0.014 | – | 0.7837 ± 0.0099
100 kPa, Vibrating wire viscometry | 2.969 ± 0.047 | 2.601 ± 0.042 | 1.797 ± 0.029 | 1.429 ± 0.023 | 1.156 ± 0.019 | 0.8579 ± 0.015 | 0.7903 ± 0.014
1000 kPa, Vibrating wire viscometry | 3.001 ± 0.048 | 2.622 ± 0.042 | 1.813 ± 0.029 | 1.44 ± 0.024 | 1.172 ± 0.019 | 0.8647 ± 0.015 | 0.7943 ± 0.014
5000 kPa, Vibrating wire viscometry | 3.108 ± 0.049 | 2.715 ± 0.043 | 1.89 ± 0.03 | 1.491 ± 0.024 | 1.227 ± 0.02 | 0.8956 ± 0.015 | 0.8284 ± 0.014
10000 kPa, Vibrating wire viscometry | 3.244 ± 0.052 | 2.834 ± 0.045 | 1.967 ± 0.032 | 1.556 ± 0.025 | 1.29 ± 0.021 | 0.9349 ± 0.016 | 0.8637 ± 0.015
20000 kPa, Vibrating wire viscometry | 3.479 ± 0.055 | 3.079 ± 0.049 | 2.14 ± 0.034 | 1.69 ± 0.027 | 1.389 ± 0.023 | 1.016 ± 0.017 | 0.9473 ± 0.016
30000 kPa, Vibrating wire viscometry | 3.788 ± 0.06 | 3.333 ± 0.053 | 2.319 ± 0.037 | 1.829 ± 0.03 | 1.504 ± 0.025 | 1.101 ± 0.018 | 1.04 ± 0.017
40000 kPa, Vibrating wire viscometry | 4.078 ± 0.065 | 3.599 ± 0.057 | 2.48 ± 0.04 | 1.975 ± 0.032 | 1.624 ± 0.026 | 1.189 ± 0.02 | 1.102 ± 0.018
50000 kPa, Vibrating wire viscometry | 4.401 ± 0.07 | 3.874 ± 0.061 | 2.629 ± 0.042 | 2.125 ± 0.034 | 1.741 ± 0.028 | 1.28 ± 0.021 | 1.21 ± 0.02
60000 kPa, Vibrating wire viscometry | 4.74 ± 0.075 | 4.16 ± 0.066 | 2.852 ± 0.045 | 2.281 ± 0.037 | 1.867 ± 0.03 | 1.375 ± 0.023 | 1.295 ± 0.021
70000 kPa, Vibrating wire viscometry | 5.076 ± 0.08 | 4.455 ± 0.071 | 3.089 ± 0.049 | 2.443 ± 0.039 | 2.014 ± 0.032 | 1.473 ± 0.024 | 1.384 ± 0.023
80000 kPa, Vibrating wire viscometry | 5.438 ± 0.086 | 4.761 ± 0.075 | 3.247 ± 0.052 | 2.61 ± 0.042 | 2.137 ± 0.034 | 1.575 ± 0.026 | 1.473 ± 0.024
100000 kPa, Vibrating wire viscometry | 6.164 ± 0.097 | 5.404 ± 0.085 | 3.686 ± 0.058 | 2.962 ± 0.047 | 2.384 ± 0.038 | 1.788 ± 0.029 | 1.676 ± 0.027
120000 kPa, Vibrating wire viscometry | 6.979 ± 0.11 | 6.087 ± 0.096 | 4.192 ± 0.066 | 3.335 ± 0.053 | 2.633 ± 0.042 | 2.015 ± 0.032 | 1.857 ± 0.03
140000 kPa, Vibrating wire viscometry | 7.843 ± 0.12 | 6.811 ± 0.11 | 4.638 ± 0.073 | 3.682 ± 0.058 | 2.883 ± 0.046 | 2.255 ± 0.036 | 2.037 ± 0.033
